How the values were obtained:
[1] = target: Activin receptor type-1 (Homo sapiens) (UniProt Q04771); assay: Inhibition of ACVR1 (unknown origin) assessed as residual activity at 1000 nM by KINOMEscan analysis relative to control
[2] = target: Ribosomal protein S6 kinase alpha-6 (Homo sapiens) (UniProt Q9UK32); assay: Inhibition of N-terminal RSK4 […] domain 1 (unknown origin) assessed as residual activity at 1000 nM by KINOMEscan analysis relative to control
[3] = target: T1, Ephrin type-B receptor 4 (Homo sapiens) (UniProt P54760); assay: Inhibition of EPHB4 (unknown origin) assessed as residual activity at 1000 nM by KINOMEscan analysis relative to control
T1 sequence (whole entry): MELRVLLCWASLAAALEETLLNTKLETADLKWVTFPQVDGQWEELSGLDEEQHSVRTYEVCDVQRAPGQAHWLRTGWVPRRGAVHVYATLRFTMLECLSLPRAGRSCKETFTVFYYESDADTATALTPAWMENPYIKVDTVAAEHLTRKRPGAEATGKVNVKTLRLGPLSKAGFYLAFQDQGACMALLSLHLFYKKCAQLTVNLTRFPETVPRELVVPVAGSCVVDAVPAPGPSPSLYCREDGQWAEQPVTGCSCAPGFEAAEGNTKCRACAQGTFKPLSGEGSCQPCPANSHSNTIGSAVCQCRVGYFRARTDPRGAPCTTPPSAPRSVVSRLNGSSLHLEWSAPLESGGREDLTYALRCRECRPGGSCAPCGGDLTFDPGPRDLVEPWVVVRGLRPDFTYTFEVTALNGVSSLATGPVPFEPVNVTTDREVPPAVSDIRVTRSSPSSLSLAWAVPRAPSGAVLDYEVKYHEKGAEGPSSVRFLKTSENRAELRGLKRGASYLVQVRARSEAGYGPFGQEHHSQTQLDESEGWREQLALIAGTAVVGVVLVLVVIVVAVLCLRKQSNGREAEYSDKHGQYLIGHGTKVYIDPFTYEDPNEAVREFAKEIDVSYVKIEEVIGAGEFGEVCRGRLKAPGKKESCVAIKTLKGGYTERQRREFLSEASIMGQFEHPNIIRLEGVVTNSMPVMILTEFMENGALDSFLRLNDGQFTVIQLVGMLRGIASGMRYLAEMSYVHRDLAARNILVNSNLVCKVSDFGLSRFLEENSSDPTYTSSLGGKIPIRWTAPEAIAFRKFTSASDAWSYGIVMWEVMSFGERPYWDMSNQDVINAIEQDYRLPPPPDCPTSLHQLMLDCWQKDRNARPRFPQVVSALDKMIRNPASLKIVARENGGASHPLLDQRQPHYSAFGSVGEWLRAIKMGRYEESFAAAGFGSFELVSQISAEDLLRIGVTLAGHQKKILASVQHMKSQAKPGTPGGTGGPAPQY

[4] = target: Microtubule-associated serine/threonine-protein kinase 1 (Homo sapiens) (UniProt Q9Y2H9); assay: Inhibition of MAST1 (unknown origin) assessed as residual activity at 1000 nM by KINOMEscan analysis relative to control
[5] = target: T2, Mitogen-activated protein kinase 15 (Homo sapiens) (UniProt Q8TD08); assay: Inhibition of ERK8 (unknown origin) assessed as residual activity at 1000 nM by KINOMEscan analysis relative to control
T2 sequence (whole entry): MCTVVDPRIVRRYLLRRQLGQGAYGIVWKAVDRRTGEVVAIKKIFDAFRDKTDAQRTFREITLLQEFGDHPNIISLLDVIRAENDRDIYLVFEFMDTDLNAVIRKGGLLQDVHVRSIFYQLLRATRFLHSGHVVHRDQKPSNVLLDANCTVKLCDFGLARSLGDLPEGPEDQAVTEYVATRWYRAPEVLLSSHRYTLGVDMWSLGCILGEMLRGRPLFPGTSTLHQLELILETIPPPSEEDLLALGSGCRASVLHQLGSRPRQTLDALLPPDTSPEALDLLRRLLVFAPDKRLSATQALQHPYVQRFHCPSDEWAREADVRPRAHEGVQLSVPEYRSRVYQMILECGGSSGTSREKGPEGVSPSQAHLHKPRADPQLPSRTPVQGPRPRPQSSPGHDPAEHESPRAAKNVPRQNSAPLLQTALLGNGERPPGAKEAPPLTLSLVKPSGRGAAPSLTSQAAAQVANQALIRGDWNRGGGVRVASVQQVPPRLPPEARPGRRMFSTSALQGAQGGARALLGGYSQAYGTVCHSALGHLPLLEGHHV

[6] = target: Phosphatidylinositol 4-phosphate 3-kinase C2 domain-containing subunit beta (Homo sapiens) (UniProt O00750); assay: Inhibition of PIK3C2B (unknown origin) assessed as residual activity at 1000 nM by KINOMEscan analysis relative to control
[7] = test system: Mast/stem cell growth factor receptor Kit (Homo sapiens), P10721 [V559D]; assay: Inhibition of KIT V559D mutant (unknown origin) assessed as residual activity at 1000 nM by KINOMEscan analysis relative to control
[8] = target: T3, Activin receptor type-1B (Homo sapiens) (UniProt P36896); assay: Inhibition of ACVR1B (unknown origin) assessed as residual activity at 1000 nM by KINOMEscan analysis relative to control
T3 sequence (whole entry): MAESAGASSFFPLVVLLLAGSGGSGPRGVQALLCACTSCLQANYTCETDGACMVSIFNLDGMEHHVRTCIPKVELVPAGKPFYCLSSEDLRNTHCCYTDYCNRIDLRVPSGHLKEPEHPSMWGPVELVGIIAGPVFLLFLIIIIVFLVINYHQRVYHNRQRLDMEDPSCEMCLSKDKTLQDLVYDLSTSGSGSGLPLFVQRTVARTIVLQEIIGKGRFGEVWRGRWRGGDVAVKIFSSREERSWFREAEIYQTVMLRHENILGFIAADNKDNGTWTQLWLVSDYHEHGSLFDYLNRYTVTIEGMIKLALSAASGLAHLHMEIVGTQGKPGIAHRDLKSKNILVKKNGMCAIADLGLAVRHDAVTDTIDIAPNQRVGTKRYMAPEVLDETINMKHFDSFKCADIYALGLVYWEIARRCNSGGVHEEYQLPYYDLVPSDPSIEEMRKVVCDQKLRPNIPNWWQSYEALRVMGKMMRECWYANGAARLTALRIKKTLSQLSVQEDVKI

Sequence of Phosphatidylinositol 4-phosphate 3-kinase C2 domain-containing subunit beta (Homo sapiens) (O00750 whole entry, the tested form may be a part): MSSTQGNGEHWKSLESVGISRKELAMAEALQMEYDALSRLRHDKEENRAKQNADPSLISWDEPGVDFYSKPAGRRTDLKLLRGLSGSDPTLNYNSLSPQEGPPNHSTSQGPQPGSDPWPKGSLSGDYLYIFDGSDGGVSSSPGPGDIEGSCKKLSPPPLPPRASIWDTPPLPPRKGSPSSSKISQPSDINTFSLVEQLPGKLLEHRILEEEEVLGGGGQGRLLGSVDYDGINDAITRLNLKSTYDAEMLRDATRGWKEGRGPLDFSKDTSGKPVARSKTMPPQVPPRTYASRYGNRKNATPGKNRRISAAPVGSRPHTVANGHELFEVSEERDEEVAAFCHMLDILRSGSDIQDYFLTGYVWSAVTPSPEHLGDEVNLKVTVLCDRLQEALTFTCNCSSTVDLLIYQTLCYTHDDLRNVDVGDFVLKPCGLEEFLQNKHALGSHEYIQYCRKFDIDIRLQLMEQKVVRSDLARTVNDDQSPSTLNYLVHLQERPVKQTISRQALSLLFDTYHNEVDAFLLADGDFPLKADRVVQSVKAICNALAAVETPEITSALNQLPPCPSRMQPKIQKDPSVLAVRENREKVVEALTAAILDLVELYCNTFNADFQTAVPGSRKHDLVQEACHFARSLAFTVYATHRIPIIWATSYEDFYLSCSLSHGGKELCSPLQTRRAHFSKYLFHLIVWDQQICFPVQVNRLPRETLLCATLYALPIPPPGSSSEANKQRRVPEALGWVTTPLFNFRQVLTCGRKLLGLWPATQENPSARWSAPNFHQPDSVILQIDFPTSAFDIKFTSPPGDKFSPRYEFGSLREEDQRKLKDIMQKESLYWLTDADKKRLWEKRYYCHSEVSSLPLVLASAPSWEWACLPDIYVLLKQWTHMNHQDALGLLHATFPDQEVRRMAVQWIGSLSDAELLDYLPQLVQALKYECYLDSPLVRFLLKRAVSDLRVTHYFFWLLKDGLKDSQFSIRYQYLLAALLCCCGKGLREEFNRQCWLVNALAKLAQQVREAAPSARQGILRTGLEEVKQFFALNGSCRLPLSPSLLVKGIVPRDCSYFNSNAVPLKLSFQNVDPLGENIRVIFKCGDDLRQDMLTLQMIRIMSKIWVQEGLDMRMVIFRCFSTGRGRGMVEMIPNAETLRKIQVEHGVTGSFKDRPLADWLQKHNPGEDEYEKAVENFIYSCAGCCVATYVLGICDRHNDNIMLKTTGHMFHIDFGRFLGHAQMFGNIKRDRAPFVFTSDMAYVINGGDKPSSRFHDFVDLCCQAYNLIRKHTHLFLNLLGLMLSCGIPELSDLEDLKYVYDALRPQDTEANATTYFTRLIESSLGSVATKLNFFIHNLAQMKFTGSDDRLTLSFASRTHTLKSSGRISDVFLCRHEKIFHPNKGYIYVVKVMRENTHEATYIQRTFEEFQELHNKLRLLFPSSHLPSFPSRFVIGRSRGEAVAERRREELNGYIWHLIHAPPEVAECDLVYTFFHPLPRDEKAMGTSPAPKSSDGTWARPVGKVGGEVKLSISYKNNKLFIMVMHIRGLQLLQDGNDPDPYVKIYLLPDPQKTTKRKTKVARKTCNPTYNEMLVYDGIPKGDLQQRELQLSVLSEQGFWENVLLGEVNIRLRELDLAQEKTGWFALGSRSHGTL
Sequence of Activin receptor type-1 (Homo sapiens) (Q04771 whole entry, looked up): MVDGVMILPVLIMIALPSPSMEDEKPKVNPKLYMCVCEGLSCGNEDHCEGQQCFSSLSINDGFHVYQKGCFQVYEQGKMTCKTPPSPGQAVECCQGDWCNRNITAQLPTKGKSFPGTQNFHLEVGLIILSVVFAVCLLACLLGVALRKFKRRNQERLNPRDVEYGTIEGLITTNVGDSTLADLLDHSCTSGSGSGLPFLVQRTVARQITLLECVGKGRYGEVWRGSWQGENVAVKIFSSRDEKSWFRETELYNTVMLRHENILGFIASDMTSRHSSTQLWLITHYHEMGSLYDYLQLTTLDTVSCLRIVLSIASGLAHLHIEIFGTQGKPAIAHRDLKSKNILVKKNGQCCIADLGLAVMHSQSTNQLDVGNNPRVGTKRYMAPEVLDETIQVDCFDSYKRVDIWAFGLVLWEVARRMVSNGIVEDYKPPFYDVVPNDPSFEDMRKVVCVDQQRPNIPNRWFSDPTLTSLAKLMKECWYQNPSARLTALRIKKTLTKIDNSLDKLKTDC
Sequence of Microtubule-associated serine/threonine-protein kinase 1 (Homo sapiens) (Q9Y2H9 whole entry, looked up): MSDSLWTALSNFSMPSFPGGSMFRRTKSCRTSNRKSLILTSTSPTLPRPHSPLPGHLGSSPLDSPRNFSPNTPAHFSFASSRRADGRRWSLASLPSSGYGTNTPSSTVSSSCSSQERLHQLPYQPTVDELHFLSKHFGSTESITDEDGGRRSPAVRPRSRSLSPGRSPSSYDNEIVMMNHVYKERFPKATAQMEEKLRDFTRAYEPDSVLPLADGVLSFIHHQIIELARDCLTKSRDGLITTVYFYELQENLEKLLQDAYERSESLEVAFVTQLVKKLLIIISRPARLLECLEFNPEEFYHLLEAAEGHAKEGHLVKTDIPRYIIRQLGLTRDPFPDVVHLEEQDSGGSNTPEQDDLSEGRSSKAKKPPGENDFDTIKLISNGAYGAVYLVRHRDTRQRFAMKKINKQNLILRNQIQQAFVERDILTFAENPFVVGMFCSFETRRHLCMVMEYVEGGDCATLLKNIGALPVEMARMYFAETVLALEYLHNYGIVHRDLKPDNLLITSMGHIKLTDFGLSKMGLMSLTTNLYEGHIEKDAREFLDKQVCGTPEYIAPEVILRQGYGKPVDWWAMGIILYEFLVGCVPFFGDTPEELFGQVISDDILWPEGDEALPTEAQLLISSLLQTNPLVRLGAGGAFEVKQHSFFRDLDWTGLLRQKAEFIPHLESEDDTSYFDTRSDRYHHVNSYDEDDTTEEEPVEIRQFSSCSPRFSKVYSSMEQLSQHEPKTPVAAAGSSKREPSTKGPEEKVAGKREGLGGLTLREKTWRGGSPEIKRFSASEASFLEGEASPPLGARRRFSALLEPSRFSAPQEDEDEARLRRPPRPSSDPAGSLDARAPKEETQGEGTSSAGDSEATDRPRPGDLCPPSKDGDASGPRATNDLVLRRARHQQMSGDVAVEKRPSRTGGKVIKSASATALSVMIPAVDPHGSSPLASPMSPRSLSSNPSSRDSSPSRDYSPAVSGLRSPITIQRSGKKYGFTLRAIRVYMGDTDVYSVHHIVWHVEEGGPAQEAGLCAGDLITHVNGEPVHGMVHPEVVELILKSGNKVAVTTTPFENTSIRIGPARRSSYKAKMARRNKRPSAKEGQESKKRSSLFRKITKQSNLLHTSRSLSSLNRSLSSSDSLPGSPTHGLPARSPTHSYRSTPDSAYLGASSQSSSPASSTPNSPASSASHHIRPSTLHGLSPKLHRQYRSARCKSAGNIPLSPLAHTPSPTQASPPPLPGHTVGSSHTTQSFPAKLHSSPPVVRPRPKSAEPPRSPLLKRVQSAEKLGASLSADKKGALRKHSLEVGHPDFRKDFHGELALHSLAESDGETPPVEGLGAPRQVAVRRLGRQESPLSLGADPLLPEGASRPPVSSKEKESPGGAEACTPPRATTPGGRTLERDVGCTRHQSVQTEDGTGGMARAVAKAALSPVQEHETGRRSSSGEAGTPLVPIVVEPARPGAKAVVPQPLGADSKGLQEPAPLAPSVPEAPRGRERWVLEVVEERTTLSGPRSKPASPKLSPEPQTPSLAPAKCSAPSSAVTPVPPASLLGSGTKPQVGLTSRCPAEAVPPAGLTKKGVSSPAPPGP
Sequence of Ribosomal protein S6 kinase alpha-6 (Homo sapiens) (Q9UK32 whole entry): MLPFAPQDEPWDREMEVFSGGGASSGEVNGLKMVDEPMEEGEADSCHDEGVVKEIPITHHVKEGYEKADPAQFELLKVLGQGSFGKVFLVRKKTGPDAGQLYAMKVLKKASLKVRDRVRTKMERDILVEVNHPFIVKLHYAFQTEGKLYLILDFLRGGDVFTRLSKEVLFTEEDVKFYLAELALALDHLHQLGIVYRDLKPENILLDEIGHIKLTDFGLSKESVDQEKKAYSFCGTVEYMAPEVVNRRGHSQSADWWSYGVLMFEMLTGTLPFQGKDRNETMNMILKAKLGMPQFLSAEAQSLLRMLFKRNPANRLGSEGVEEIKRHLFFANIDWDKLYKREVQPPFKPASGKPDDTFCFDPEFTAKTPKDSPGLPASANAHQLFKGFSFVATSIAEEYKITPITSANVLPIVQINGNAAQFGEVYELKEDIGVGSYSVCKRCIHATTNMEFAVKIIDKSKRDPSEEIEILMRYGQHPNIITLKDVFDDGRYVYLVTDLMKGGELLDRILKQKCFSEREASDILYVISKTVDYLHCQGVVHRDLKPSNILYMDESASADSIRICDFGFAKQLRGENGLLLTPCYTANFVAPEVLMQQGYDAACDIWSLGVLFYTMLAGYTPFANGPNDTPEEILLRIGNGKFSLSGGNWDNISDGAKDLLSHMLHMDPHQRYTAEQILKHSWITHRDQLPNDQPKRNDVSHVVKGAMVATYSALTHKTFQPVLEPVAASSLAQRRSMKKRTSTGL

Row | Compound | Activity [1] [%] | Activity [2] [%] | Activity [3] [%] | Activity [4] [%] | Activity [5] [%] | Activity [6] [%] | Activity [7] [%] | Activity [8] [%]
1 | COc1cc2nc(C)nc(N[C@H](C)c3cccc(-c4cn[nH]c4)c3)c2cc1OC | 100 | 78 | 45 | 64 | 60 | 90 | 81 | 100
2 | COc1cc2ncnc(N[C@H](C)c3cccc4ccccc34)c2cc1OC | 100 | 100 | 99 | 91 | 100 | 89 | 95 | 100
